# Values joined by “and” are separate entries in the source; they are usually repeats but may differ in a detail not shown here. Identical values can stand only once. “Also recorded” adds a separate entry of the source. Counter-ions that a name gives are not always drawn.
# Legend:
# mouse colon = assay: Oligonucleotide array analysis (Affymetrix Mu74Av2) of normal colon/intestine of tumor-bearing mice treated with CPT-11 or saline; type: in vivo
# [1] = test system: Colo205 human colorectal cancer cells; assay: Growth, treatment and resection of Colo205 tumor xenografts in nude mice (mass, H&E); type: in vivo
# Description: (§1) Growth and treatment of human tumor xenografts—Female nude mice (Charles River Laboratories, Hollister Calif.) were maintained in accordance with the guide for the Care and Use of Laboratory Animals, Colo205 human colorectal cancer cells were harvested, resuspended in HBSS, and injected s.c. into flanks (5×10^6 cells/flank) of 6-8 week old mice. […] Twenty-four hours following the final dose of CPT-11 or saline, tumors were resected from the animals. […]. Half of each tumor was frozen immediately in liquid nitrogen for subsequent extraction of RNA and the other half was fixed in 10% neutral buffer formalin overnight and then transferred 24 hours later into 70% ethanol for sectioning, microscopic analysis and analysis by in situ hybridization. Tumor xenografts of the DLD-1 colorectal cell line were treated and prepared in essentially the same manner. The masses of the DLD-1 colorectal tumor xenografts at time of resection were 0.24, 0.10 and 0.21 for saline controls and 0.21, 0.1 and 0.12 for CPT-11-treated tumors.
# [2] = test system: DLD-1 colorectal tumor xenografts; assay: Growth, treatment and resection of DLD-1 tumor xenografts in nude mice; type: in vivo, human; details: DLD-1 xenografts; CPT-11-treated; at time of resection; monohydrochloride, trihydrate
# Description: as §1
# Colo205 tumors = assay: Real-time PCR (TaqMan) of RNA from Colo205 xenograft tumors; type: in vivo, human
# Protocol: Real-Time PCR (TaqMan®)'The source of RNA used for RT-PCR analysis was the same as that used for the preparation of probes for oligonucleotide array analysis. Quantitative Reverse Transcriptase-PCR (RT-PCR) was performed using TaqMan® assay reagents from Perkin-Elmer, Applied Biosystems, 50 μl RT-PCR reactions consisted of 5 μl 10× TaqMan Buffer A, 300 μM of each dNTP, 5 mM MgCl2, 10 unites of RNase inhibitor, 12.5 units of MuLV Reverse Transcriptase, 1.25 units of AmpliTaq Gold DNA Polymerase, 200 nM probe, 500 nM primers and 100 ng RNA. Reaction conditions consisted of reverse transcription at 48° C. for 10 minutes, denaturation at 95° C. for 10 minutes, and 40 thermal cycles of 95° C. for 25 seconds, and 65° C. for 1 min. Reaction products were analyzed on 4-agarose gels (Invitrogen). Fold-induction for each gene of interest was determined using the ΔΔCt method and the result is presented relative to both GAPDH and actin in each figure. The following specific probes and primer sets were used for MFGE8 (Acc#U58516): forward primer: […] (SEQ ID NO: 1), reverse primer: […] (SEQ ID NO: 2), and probe: […] (SEQ ID NO: 3); GPC1 (Acc#X54232): forward primer: […] (SEQ ID NO: 4), reverse primer: […] (SEQ ID NO: 5), and probe: […] (SEQ ID NO:6); AQP3 (Acc# N74607): forward primer: […] (SEQ ID NO: 7), reverse primer: […] (SEQ ID NO: 8), and probe, […] […]
# DLD-1 tumors = assay: Real-time PCR (TaqMan) of RNA from DLD-1 xenograft tumors, parallel to Colo205; type: in vivo, human
# Protocol: (§2) Real-Time PCR (TaqMan®)'The source of RNA used for RT-PCR analysis was the same as that used for the preparation of probes for oligonucleotide array analysis. Quantitative Reverse Transcriptase-PCR (RT-PCR) was performed using TaqMan® assay reagents from Perkin-Elmer, Applied Biosystems, 50 μl RT-PCR reactions consisted of 5 μl 10× TaqMan Buffer A, 300 μM of each dNTP, 5 mM MgCl2, 10 unites of RNase inhibitor, 12.5 units of MuLV Reverse Transcriptase, 1.25 units of AmpliTaq Gold DNA Polymerase, 200 nM probe, 500 nM primers and 100 ng RNA. Reaction conditions consisted of reverse transcription at 48° C. for 10 minutes, denaturation at 95° C. for 10 minutes, and 40 thermal cycles of 95° C. for 25 seconds, and 65° C. for 1 min. Reaction products were analyzed on 4-agarose gels (Invitrogen). Fold-induction for each gene of interest was determined using the ΔΔCt method and the result is presented relative to both GAPDH and actin in each figure. The following specific probes and primer sets were used for MFGE8 (Acc#U58516): forward primer: […] (SEQ ID NO: 1), reverse primer: […] (SEQ ID NO: 2), and probe: […] (SEQ ID NO: 3); GPC1 (Acc#X54232): forward primer: […] (SEQ ID NO: 4), reverse primer: […] (SEQ ID NO: 5), and probe: […] (SEQ ID NO:6); AQP3 (Acc# N74607): forward primer: […] (SEQ ID NO: 7), reverse primer: […] (SEQ ID NO: 8), and probe, […] (SEQ ID NO: 9); CDH17 (Acc#83228): forward primer: […] (SEQ ID NO: 10), reverse primer: […] (SEQ ID NO: 11), and probe: […] (SEQ ID NO: 12); Ly6D/E48 (Acc#Y12642): forward primer: […] (SEQ ID NO: 13); reverse primer: […] (SEQ ID NO: 14); and probe: […] (SEQ ID NO: 15); and Ly6E/SCA-2 (Acc# U66711): forward primer: […] (SEQ ID NO: 16); reverse primer: […] (SEQ ID NO: 17); and probe: […] (SEQ ID NO: 18).
# normal colon tissue = assay: Real-time PCR with mouse-specific primers on normal colon of CPT-11 treated mice; type: in vivo; details: normal colon of CPT-11 treated vs control mice; data not shown
# Protocol: Real-Time PCR (TaqMan®)'The source of RNA used for RT-PCR analysis was the same as that used for the preparation of probes for oligonucleotide array analysis. Quantitative Reverse Transcriptase-PCR (RT-PCR) was performed using TaqMan® assay reagents from Perkin-Elmer, Applied Biosystems, 50 μl RT-PCR reactions consisted of 5 μl 10× TaqMan Buffer A, 300 μM of each dNTP, 5 mM MgCl2, 10 unites of RNase inhibitor, 12.5 units of MuLV Reverse Transcriptase, 1.25 units of AmpliTaq Gold DNA Polymerase, 200 nM probe, 500 nM primers and 100 ng RNA. Reaction conditions consisted of reverse transcription at 48° C. for 10 minutes, denaturation at 95° C. for 10 minutes, and 40 thermal cycles of 95° C. for 25 seconds, and 65° C. for 1 min. Reaction products were analyzed on 4-agarose gels (Invitrogen). Fold-induction for each gene of interest was determined using the ΔΔCt method and the result is presented relative to both GAPDH and actin in each figure. The following specific probes and primer sets were used for MFGE8 (Acc#U58516): forward primer: […] NO: 1), reverse primer: […] NO: 2), and probe: […] NO: 3); GPC1 (Acc#X54232): forward primer: […] NO: 4), reverse primer: […] NO: 5), and probe: […] […] Real-time PCR with primers specific for corresponding mouse transcripts was performed and with the exceptions of SPRR3 and Aquaporin-3, all of the mouse homologs were readily detected in RNA from mouse colon. […]
# LY6D/E48 transcript = assay: LY6D/E48 mRNA induction in cultured cell lines by CPT-11 (real-time PCR); type: cell-based, human; details: for LY6D/E48 transcript: monohydrochloride, trihydrate
# Description: (§3) Cell lines-Colo205, HCT116, HT29 (ATCC Nos. CCL222, CCL221, CCL247, HTB38, respectively) are human colorectal adenocarcinoma cell lines. 293 is a human immortalized embryonic kidney cell line (ATCC CRL573). PC-3 is a human prostate adenocarcinoma cell line (ATCC CRL1435) and HT1080 is a human fibrosarcoma cell line (ATCC CCL-121). PC-3 stable cell lines were generated by transfection (Effectene, Qiagen) with a CMV-driven vector encoding either an NH2-terminal gD epitope-tagged form of LY6D/E48 or an empty vector and selected in 400 μg/ml G418 (Geneticin, Life Technologies, Inc.). Growth conditions were according to American Type Culture Collection (ATCC, Manassas, Va.) guidelines. For all cell lines, CPT11 treatments were done in 10 cm dishes for the indicated timepoints. Cells were harvested and RNA was prepared using RNeasy kit (Qiagen, Hilden, Germany). TaqMan® real-time quantitative PCR analysis was performed as described below.
# as §2
# E48/Ly-6D = E48/Ly-6D surface expression on Colo205 cells after CPT-11 (FACS, immunofluorescence); type: cell-based, human
# Protocol: For flow cytometry, cells were grown to 90% confluence and removed from plates using 2 mM EDTA in PBS. Cells were washed and resuspended in FACS buffer (PBS with 1% BSA) and incubated for 60 min with anti-LY6D/[…] monoclonal antibody 15A5 or 17H7 or anti-gd antibody (Genentech, Inc.) followed by 60 min with anti-mouse secondary antibody conjugated to PE. Analysis was performed on FACS scan.
# Colo205 and DLD-1 cells = Colo205 and DLD-1 cells treated in vitro with CPT-11, expression of genes of Table I; type: cell-based, human; details: data not shown
# Description: as §3, with “LY6D/[…]” for “LY6D/E48”
# [3] = test system: Colo205 human tumor xenografts; assay: In vivo efficacy study, Colo205 xenografts in nude mice; details: CPT-11 alone, 80 mg/kg IP day 0, 4 & 8; regrowth at rapid rate after last administration
structure (smiles),measurement,setting,value
"CCc1c2c(nc3ccc(OC(=O)N4CCC(N5CCCCC5)CC4)cc13)-c1cc3c(c(=O)n1C2)COC(=O)[C@]3(O)CC [CPT-11, (S)-[1,4′-bipiperidine]-1′-carboxylic acid, 4,11-diethyl-3,4,12,14-tetrahydro-4-hydroxy-3,14-dioxo-1H-pyrano[3′,4′:6,7]indolizino(1,2-b)quinolin-9-yl ester, monohydrochloride, trihydrate]",tumor-induced transcripts in normal mouse intestine,mouse colon; apart from Metallothionein (MT1G),none of the transcripts that were induced in the tumors by CPT-11 were induced in the normal mouse intestine
same,cryptidin genes,"mouse colon; normal colon, three animals treated with CPT-11",activated in two of the three animals treated with CPT-11
same,"gene activation in colon, Mu74Av2 array",mouse colon; unrelated to most genes induced in the xenografts,activation of a small number of genes in the colon
same,"average tumor mass, drug treated vs control group",[1]; 24 hours after third injection,did not differ significantly
same,average mass of the tumors,"[1]; 24 hours after third injection, control and drug treated groups",approximately 300 mg
same,mass of resected tumor (individual tumors),"[1]; CPT-11 80 mg/kg IP three times at 4 day intervals, 24 hours after final dose, monohydrochloride, trihydrate, 80 mg/kg",0.23 grams and 0.18 grams and 0.50 grams
same,mass of resected tumor (individual tumors),[2],0.21 and 0.1 and 0.12
same,Galectin-7 mRNA,Colo205 tumors; Colo205 tumors,present and induced
same,"transcripts MFGE8, GPC1, AQP3, CDH17, LY6D, LY6E, identified and confirmed by real-time PCR",Colo205 tumors; three CPT-11 treated Colo205 tumors vs saline controls,significant upregulation in all three CPT-11 treated tumors relative to controls
same,Activation of Keratin23 and E48,DLD-1 tumors; Colo205 and DLD-1 tumors,occurred in both tumor types
same,"Neuromedin U, Annexin VIII, Transglutaminase, Aquaporin-3 and Maspin",DLD-1 tumors; Colo205 and DLD-1 tumors,all induced by SPT-11 and expressed at comparable levels in the Colo205 and DLD-1 tumors
same,Galectin-7 mRNA,DLD-1 tumors; DLD-1 tumors,undetectable in both treated or control DLD-1 tumors
same,Periplekin and Antileukoproteinase induction,DLD-1 tumors; DLD-1 tumors compared with Colo205 tumors,induced by SPT-11 to a degree less than that observed for the Colo205 tumors
same,"genes induced by CPT-11, Colo205 and DLD-1 tumors in parallel","DLD-1 tumors; real-time PCR, FIG. 2",most of the genes were induced by CPT-11 treatment of both tumor types
same,expression of mouse homologs of tumor-induced genes,normal colon tissue,no difference in expression of these genes was detected
same,LY6D/E48 mRNA,LY6D/E48 transcript; colorectal cancer cell line DLD-1,overexpressed LY6D/E48 MRNA in response to CPT-11
same,LY6D/E48 mRNA,LY6D/E48 transcript; colorectal cancer cell line HCT116,overexpressed LY6D/E48 MRNA in response to CPT-11
same,LY6D/E48 mRNA,LY6D/E48 transcript; colorectal cancer cell line HT29,overexpressed LY6D/E48 MRNA in response to CPT-11
same,LY6D/E48 transcript level,"LY6D/E48 transcript; cultured Colo205 cells, 10 μM CPT-11, 24 and 48 hours",elevated within 24 hours post-treatment with a further enhancement by 48 hours
same,LY6D/E48 mRNA,LY6D/E48 transcript; fibrosarcoma cell line HT1080,overexpressed LY6D/E48 MRNA in response to CPT-11
same,LY6D/E48 transcript,"LY6D/E48 transcript; human embryonic kidney cell line 293, 10 μM CPT-11",could not be detected in the absence or presence of CPT-11; also recorded: not detected
same,LY6D/E48 transcript,"LY6D/E48 transcript; human prostate cancer PC3 cell line, 10 μM CPT-11",could not be detected in the absence or presence of CPT-11; also recorded: not detected
same,anti-LY6D/E48 signal intensity by fluorescence activated cell sorting,"E48/Ly-6D; Colo205 cells, increasing concentrations of CPT-11 in vitro, 2 days",increased in a dose dependent manner
same,signal intensity and percentage of reactive cells by immunofluorescent microscopy,"E48/Ly-6D; intact Colo205 cells, increasing CPT-11",increased with drug dosage
same,expression of genes listed in Table I,Colo205 and DLD-1 cells,upregulation of some of the genes listed in Table I was observed
same,tumor growth,[3],transiently reduced the rate of tumor growth
